Measurements from patent US20250034136A1 (Nimbus Wadjet, Inc., priority 2023, published 2025).
Like-named read-outs stand apart in the source and are kept apart here.

Columns and labels:
[1] = target: WRN (BV08), human Werner helicase (Uniprot Q14191, amino acids 517-1235 with L1074F point mutation) (Homo sapiens (Human), UniProt Q14191, L1074F); experiment: WRN (BV08) ADP-Glo assay; format: biochemical; conditions: class symbols A-E, read-out: ADP-Glo_hWRN_IC50
Protocol: Bovine skin gelatin (BSG), dimethyl sulfoxide (DMSO), Pluronic F-127 and tris(2-carboxyethyl)phosphine hydrochloride solution (TCEP) were purchased from Sigma-Aldrich (St. Louis, MO) at the highest level of purity possible. […] DNA strands were annealed by heating to 95° C. for 5 minutes followed by slow cooling to room temperature. Compounds in 100% DMSO (0.1 μl) were spotted into a 384-well white polystyrene Optiplate-384 (Perkin Elmer; Waltham, MA) assay plate using a LabCyte Echo 550 (Agilent; Santa Clara, CA). DMSO (0.1 μl) was added to columns 12, rows A-H and column 24, rows I-P for the maximum signal control. […] Compounds/DMSO were preincubated for 15 minutes at 25° C. with 5 μl 2×WRN (BV08), prepared as described below, in assay buffer containing 20 mM Bicine (pH=7.5), 1 mM MgCl2, 10 mM KCl, 0.1% Pluronic F-127, 0.005% BSG, 1 mM TCEP. The reaction was initiated by the addition of 5 μl 2× substrate mixture in assay buffer and incubated for 60 minutes at 25° C. The final concentrations of the assay components were 0.15 nM WRN, 5 μM ATP, and 0.1 nM DNA duplex. The final DMSO concentration was 1% and the reference compound concentration (NSC-617145) used for the minimal signal control was 20 μM. The reaction was stopped by the addition of the ADP-Glo Kit components (Promega; Madison, WI) as directed and the relative luminescence units (RLU) were read on an Envision 2104 (Perkin Elmer; Waltham, MA). % inhibition calculation:
[formula] • Where RLU=relative luminescence units, sample=signal in sample well, and MIN and MAX are the respective minimum and maximum signal controls.
[formula] • Where top and bottom are normally allowed to float but may be fixed at 100 or 0 respectively in a 3-parameter fit. Y is the % inhibition and X is the compound concentration.
Molecular Biology and virus production. […] The baculovirus from the expression plasmid WRN—BV08 was generated from transfection and amplification following the manufacturer's instructions.
Sf9 cells grown in SF900II media were infected with 1:200 WRN—BV08 P2 virus and incubated for protein expression for 72 h at 27° C. The WRN protein was purified using the following protocol. The cell pellets were thawed and resuspended in buffer A (50 mM Tris, pH 7.5, 500 mM NaCl, 1 mM TCEP, 10% Glycerol) supplemented with 0.5% CHAPS, 1 mM PMSF, 1 μg/ml Leupeptin, 1 μg/ml Pepstatin, and the Pierce Universal Nuclease and cocktail tablet. Cleared lysates were loaded onto a Ni Sepharose™ excel column and washed with buffer A and bound protein was eluted with buffer A supplemented with 300 mM imidazole. The eluted protein was dialyzed against buffer A and digested by His-tagged TEV (1:5 ratio) overnight at 4° C. ZnCl2 was added into the sample at final 15 μM before loading onto a second Ni Sepharose™ excel column. Untagged WRN protein was eluted from the column with buffer A supplemented with 20 mM imidazole, dialyzed overnight into buffer B (50 mM Tris, pH 7.5, 1 mM TCEP, 10% Glycerol) supplemented with 150 mM NaCl and loaded onto a Heparin column. Proteins were eluted with a step gradient of buffer B supplemented with 150 mM, 200 mM, 300 mM and 500 mM NaCl. WRN containing fractions were pooled and concentrated prior to loading on to size exclusion chromatography using a HiLoad 16/600 Superdex™ 200 pg column (GE Healthcare) in buffer C (20 mM HTEPES, pH 7.5, 250 mM NaCl, 0.25 mM TCEP, […]).

[2] = test system: p21 induction in HCT116 cells; experiment: p21 induction in HCT116 cells; format: cell-based; conditions: HCT116 cells, 24 h compound incubation, read-out: P21_EC50
Protocol: The colon carcinoma cell line HCT116 was obtained from ATCC and cultured in growth medium consisting of Mccoy's 5A Medium (Gibco 16600108) supplemented with 10% FBS (Transgene FS201-02) and 100 units/mL penicillin-streptomycin (Gibco 15140122) and maintained at 37° C. under 5% CO2. On the day of seeding, 2,000 cells in 30 μL of culture media were plated per well to Poly-D-Lysine 384 Well Black Clear Plates (Biocoat 356663) and incubated overnight at 37° C. under 5% CO2. The following day, compounds were serially diluted in DMSO for a total of 11 test concentrations. […] Next, 150 nL of diluted compound was added in duplicate to the assay plate, using an Echo 655 (Labcyte). The plate was centrifuged at 500 RPM for 1 min and then incubated at 37° C. under 5% CO2 for 24 h. After 24 h, medium was removed, and cells were fixed by adding 40 μL of 4% paraformaldehyde solution to each well and incubated for 20 min at room temperature. The plate was then washed 4 times with 100 μL per well of wash buffer (PBS with 0.1% Tween-20) using a microplate washer. Next, 30 μL of ice-cold methanol was added to each well and the plate was incubated at −20° C. for 10 min. The plate was washed 4 times with 100 μL per well of wash buffer by a microplate washer, then 30 μL per well of blocking buffer (Intercept PBS blocking buffer (LI-COR 927-70001) with 0.05% Tween-20) was added and the plate was incubated at room temperature with shaking for 2 h. Next, to each test well, 20 μL of primary antibody solution (p21 Waf1/CIP (12D1) RabbitmAb (Cell Signaling Technologies 2947) diluted 1:1000 and GAPDH (D4C6R) Mouse mAb (Cell Signaling Technologies 97166) diluted 1:2000 in blocking buffer) was added and the plate was placed at 4° C., overnight. The following day, the plate was washed 5 times with 100 μL per well of wash buffer using a microplate washer for 5 min. 20 μL per well of secondary antibody (IRDye 680CW Goat anti-Mouse IgG (H+L) (LI-COR 926-68070) diluted 1: 2000 in Blocking Buffer and IRDye 800CW Goat anti-Rabbit IgG (H+L) (LI-COR 926-32211) diluted 1: 2000 in Blocking Buffer) was then added and the plate was stored for 2 h in the dark at room temperature with shaking. The plate was then washed 4 times with 100 μL per well of wash buffer again using a microplate washer. Finally, the p21 signal and the GAPDH signal were quantified using a LI-COR Odyssey CLx Imager machine reading at 800 nm and 700 nm, respectively. Each plate contained DMSO control (low control) and an internal reference WRN inhibitor (high control) respectively. […] EC50 values for each compound were generated after non-linear regression curve fitting using commercially available software.

Chain of WRN (BV08), human Werner helicase (Uniprot Q14191, amino acids 517-1235 with L1074F point mutation) (Q14191 other isoform, or with tags, fused parts or gaps L1074F (already in the parent)): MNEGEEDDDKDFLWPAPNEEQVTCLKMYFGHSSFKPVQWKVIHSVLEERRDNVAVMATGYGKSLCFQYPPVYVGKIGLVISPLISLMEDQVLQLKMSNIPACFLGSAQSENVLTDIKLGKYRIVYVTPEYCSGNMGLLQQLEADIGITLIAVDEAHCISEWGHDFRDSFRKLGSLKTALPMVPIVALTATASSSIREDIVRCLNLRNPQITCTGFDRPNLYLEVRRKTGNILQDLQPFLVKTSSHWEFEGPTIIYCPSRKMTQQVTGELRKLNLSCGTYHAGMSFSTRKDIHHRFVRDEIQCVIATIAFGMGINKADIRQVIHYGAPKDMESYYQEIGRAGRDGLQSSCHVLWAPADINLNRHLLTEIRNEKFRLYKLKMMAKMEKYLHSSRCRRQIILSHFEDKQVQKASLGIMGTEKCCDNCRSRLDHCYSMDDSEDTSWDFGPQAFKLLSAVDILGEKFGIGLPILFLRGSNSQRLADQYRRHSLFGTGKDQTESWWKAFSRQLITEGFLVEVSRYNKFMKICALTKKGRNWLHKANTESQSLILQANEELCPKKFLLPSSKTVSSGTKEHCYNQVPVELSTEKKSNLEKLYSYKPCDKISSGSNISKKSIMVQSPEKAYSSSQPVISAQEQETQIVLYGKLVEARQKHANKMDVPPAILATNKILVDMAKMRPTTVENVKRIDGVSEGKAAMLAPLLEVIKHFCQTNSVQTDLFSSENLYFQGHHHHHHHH

Row | SMILES | IC50 [1] [nM] | EC50 ([2]; Homo sapiens, HCT-116, 24 h) [nM] | EC50 [2] [nM]
1 | CCc1c(N2CCN(C(=O)c3ncnc(C)c3O)[C@@H]3CC[C@H]32)c(=O)c2nc(N(C)C3CC3)cnc2n1CC(=O)Nc1ccc(C(F)(F)F)cc1Cl (single isomer, unassigned) [I-119, N-(2-chloro-4-(trifluoromethyl)phenyl)-2-(2-(cyclopropyl(methyl)amino)-6-ethyl-7-(5-(5-hydroxy-6-methylpyrimidine-4-carbonyl)-2,5-diazabicyclo[4.2.0]octan-2-yl)-8-oxopyrido[2,3-b]pyrazin-5(8H)-yl)acetamide] | 5 to 50 | < 500 | –
2 | CCc1c(N2CCN(C(=O)c3ncnc(C)c3O)[C@@H]3CC[C@H]32)c(=O)c2nc(N(C)C3CC3)cnc2n1CC(=O)Nc1ccc(C(F)(F)F)cc1Cl (single isomer, unassigned) [I-169, N-[2-chloro-4-(trifluoromethyl)phenyl]-2-{2-[cyclopropyl(methyl)amino]-6-ethyl-7-[-5-(5-hydroxy-6-methylpyrimidine-4-carbonyl)-2,5-diazabicyclo[4.2.0]octan-2-yl]-8-oxo-5H,8H-pyrido[2,3-b]pyrazin-5-yl}acetamide] | 5 to 50 | – | 500 to 2000
3 | CCc1c(N2CCN(C(=O)c3ncnc(C)c3O)[C@H]3CC[C@@H]32)c(=O)c2nc(NC)cnc2n1CC(=O)Nc1ccc(C(F)(F)F)cc1Cl (single isomer, unassigned) [I-171, N-(2-chloro-4-(trifluoromethyl)phenyl)-2-(6-ethyl-7-(5-(5-hydroxy-6-methylpyrimidine-4-carbonyl)-2,5-diazabicyclo[4.2.0]octan-2-yl)-2-(methylamino)-8-oxopyrido[2,3-b]pyrazin-5(8H)-yl)acetamide] | 50 to 100 | – | > 5000

Further lines, results first:

Row | IC50 [1] [nM] | EC50 ([2]; Homo sapiens, HCT-116, 24 h) [nM] | EC50 [2] [nM] | SMILES
4 | ≤ 5 | < 500 | – | CCc1c(N2CCN(C(=O)c3ncnc(C)c3O)[C@@H]3CC[C@H]32)c(=O)c2nc(NC)cnc2n1CC(=O)Nc1ccc(C(F)(F)F)cc1Cl (single isomer, unassigned) [I-172, N-(2-chloro-4-(trifluoromethyl)phenyl)-2-(6-ethyl-7-(5-(5-hydroxy-6-methylpyrimidine-4-carbonyl)-2,5-diazabicyclo[4.2.0]octan-2-yl)-2-(methylamino)-8-oxopyrido[2,3-b]pyrazin-5(8H)-yl)acetamide]
5 | ≤ 5 | < 500 | – | CCc1c(N2CCN(C(=O)c3ncnc(C)c3O)C[C@@H]2C)c(=O)c2nc(N3CC[C@H]4C[C@H]43)cnc2n1CC(=O)Nc1ccc(C(F)(F)F)cc1Cl (single isomer, unassigned) [I-192]
6 | 5 to 50 | 500 to 2000 | – | CCc1c(N2CCN(C(=O)c3ncnc(C)c3O)[C@@H](C)[C@H]2C)c(=O)c2nc(N(C)C)cnc2n1CC(=O)Nc1ccc(C(F)(F)F)cc1Cl (single isomer, unassigned) [I-196, N-(2-chloro-4-(trifluoromethyl)phenyl)-2-(2-(dimethylamino)-6-ethyl-7-(4-(5-hydroxy-6-methylpyrimidine-4-carbonyl)-2,3-dimethylpiperazin-1-yl)-8-oxopyrido[2,3-b]pyrazin-5(8H)-yl)acetamide]
7 | 100 to 500 | > 5000 | – | CCc1c(N2CCN(C(=O)c3ncnc(C)c3O)[C@H]3CCC[C@H]32)c(=O)c2nc(N(C)C)cnc2n1CC(=O)Nc1ccc(C(F)(F)F)cc1Cl (single isomer, unassigned) [I-208, N-(2-chloro-4-(trifluoromethyl)phenyl)-2-(2-(dimethylamino)-6-ethyl-7-(4-(5-hydroxy-6-methylpyrimidine-4-carbonyl)octahydro-1H-cyclopenta[b]pyrazin-1-yl)-8-oxopyrido[2,3-b]pyrazin-5(8H)-yl)acetamide]
8 | 5 to 50 | < 500 | – | CCc1c(N2CCN(C(=O)c3ncnc(C)c3O)[C@@H]3CCC[C@@H]32)c(=O)c2nc(N(C)C)cnc2n1CC(=O)Nc1ccc(C(F)(F)F)cc1Cl (single isomer, unassigned) [I-209, N-(2-chloro-4-(trifluoromethyl)phenyl)-2-(2-(dimethylamino)-6-ethyl-7-(4-(5-hydroxy-6-methylpyrimidine-4-carbonyl)octahydro-1H-cyclopenta[b]pyrazin-1-yl)-8-oxopyrido[2,3-b]pyrazin-5(8H)-yl)acetamide]
